In ChEMBL document CHEMBL1201862, “PubChem BioAssay data set” (2004):
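How tested: cells in 96-well plates exposed to compound for 48 hours at five concentrations. At the GI50, growth is halved.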 Activity calls are given as the source filed them. No stated cut-off is given here; in the data, active = GI50 up to about 1.1 µM and inactive = higher.

Experiments:
Test in all cases: growth of human tumour cells (NCI), 48 h
[1] = test system: A498
[2] = test system: BT-549
[3] = test system: CAKI-1
[4] = test system: CCRF-CEM
[5] = test system: HOP-92
[6] = test system: IGROV-1
[7] = test system: K562
[8] = test system: LOX IMVI
[9] = test system: MCF7
[10] = test system: NCI-H23
[11] = test system: SF-268
[12] = test system: SF-295
[13] = test system: SF-539
[14] = test system: SK-MEL-2
[15] = test system: SK-MEL-5
[16] = test system: SNB-19
[17] = test system: SNB-75
[18] = test system: SW-620
[19] = test system: U-251
[20] = test system: UACC-62

Measured: GI50

N=C(CC(=O)Nc1ccccn1)c1ccccc1
inactive: [1] > 100 µM | [2] > 100 µM | [3] > 100 µM | [4] > 100 µM | [5] > 100 µM | [6] > 100 µM | [7] > 100 µM | [8] > 100 µM | [9] > 100 µM | [10] > 100 µM | [11] > 100 µM | [12] > 100 µM | [13] > 100 µM | [14] > 100 µM | [15] > 100 µM | [16] > 100 µM | [17] > 100 µM | [18] > 100 µM | [19] > 100 µM | [20] > 100 µM

Cc1c2c(c(C)c3c[n+](C)ccc13)Oc1ccccc1O2
inactive: [1] 28.6 µM | [2] 2.67 µM | [3] > 67.5 µM | [4] 3.87 µM | [5] 34.8 µM | [6] 13.9 µM | [7] 3.59 µM | [8] 22.3 µM | [9] 9.12 µM | [10] 6.9 µM | [11] 1.64 µM | [12] 5.69 µM | [13] 3.78 µM | [14] 12.2 µM | [15] 4.32 µM | [16] 1.74 µM | [17] 5.28 µM | [18] 16.9 µM | [19] 1.21 µM | [20] 12.7 µM

COC(=O)C1(Cc2ccccc2C)Cc2ccc(C)cc2C1=O (stereo not given)
inactive: [1] 31.3 µM | [2] 49.1 µM | [3] 36.1 µM | [4] 48 µM | [5] 21.6 µM | [6] 70.5 µM | [7] 42.2 µM | [8] 19.7 µM | [9] 20 µM | [10] 26.4 µM | [11] 69.7 µM | [12] 34.4 µM | [13] 37.5 µM | [14] 21.2 µM | [15] 16.9 µM | [16] 64.6 µM | [17] 58.3 µM | [18] 45 µM | [19] 39 µM | [20] 40.6 µM

S=C1c2cc(Cl)ccc2N=C(NC2CCCC2)C2CSCN12 (stereo not given)
inactive: [1] > 100 µM | [2] > 100 µM | [3] > 100 µM | [4] > 69.5 µM | [5] 60.5 µM | [6] > 100 µM | [7] > 68.7 µM | [8] > 100 µM | [9] > 71.4 µM | [10] 62.5 µM | [11] > 100 µM | [12] > 75.9 µM | [13] 89.9 µM | [14] > 76.6 µM | [15] > 100 µM | [16] > 100 µM | [17] 99.3 µM | [18] > 85.3 µM | [19] > 100 µM | [20] > 92.9 µM

C=CCN1C(=O)/C(=C/c2cccs2)N=C1SC/C=C/C
inactive: [1] 27 µM | [2] 39.1 µM | [3] 46.9 µM | [4] 34.8 µM | [5] 24.6 µM | [6] 63.8 µM | [7] 32.5 µM | [8] 36.1 µM | [9] 26.4 µM | [10] 44.7 µM | [11] 46.5 µM | [12] 40.4 µM | [13] 58.3 µM | [14] 27.2 µM | [15] 19.1 µM | [16] 80.9 µM | [17] 17.3 µM | [18] 35.6 µM | [19] 37.7 µM | [20] 32.4 µM
